Results published in ChEMBL document CHEMBL5030563, “Structure-Based Design of Dual-Acting Compounds Targeting Adenosine A2A Receptor and Histone Deacetylase as Novel Tumor Immunotherapeutic Agents” (J Med Chem, 2021).

How the values were obtained:
[1] = tested on: MC-38; experiment: Antiproliferative activity against mouse MC38 cells measured after 72 hrs by CCK8 assay; type: functional
[2] = biological target: Adenosine receptor A2a (Homo sapiens, UniProt P29274); experiment: Displacement of [3H]SCH58261 from adenosine A2A receptor membrane (unknown origin) measured after 60 mins by scintillation counting analysis; type: cell membranes
[3] = biological target: T1, Protein deacetylase HDAC6 (Homo sapiens, UniProt Q9UBN7); experiment: Inhibition of HDAC6 (unknown origin) assessed as release of 7-amino-4-methylcoumarin incubated in room temperature for 15 min measured by Spectra max microtitre plate reader
T1 sequence (Q9UBN7 whole entry): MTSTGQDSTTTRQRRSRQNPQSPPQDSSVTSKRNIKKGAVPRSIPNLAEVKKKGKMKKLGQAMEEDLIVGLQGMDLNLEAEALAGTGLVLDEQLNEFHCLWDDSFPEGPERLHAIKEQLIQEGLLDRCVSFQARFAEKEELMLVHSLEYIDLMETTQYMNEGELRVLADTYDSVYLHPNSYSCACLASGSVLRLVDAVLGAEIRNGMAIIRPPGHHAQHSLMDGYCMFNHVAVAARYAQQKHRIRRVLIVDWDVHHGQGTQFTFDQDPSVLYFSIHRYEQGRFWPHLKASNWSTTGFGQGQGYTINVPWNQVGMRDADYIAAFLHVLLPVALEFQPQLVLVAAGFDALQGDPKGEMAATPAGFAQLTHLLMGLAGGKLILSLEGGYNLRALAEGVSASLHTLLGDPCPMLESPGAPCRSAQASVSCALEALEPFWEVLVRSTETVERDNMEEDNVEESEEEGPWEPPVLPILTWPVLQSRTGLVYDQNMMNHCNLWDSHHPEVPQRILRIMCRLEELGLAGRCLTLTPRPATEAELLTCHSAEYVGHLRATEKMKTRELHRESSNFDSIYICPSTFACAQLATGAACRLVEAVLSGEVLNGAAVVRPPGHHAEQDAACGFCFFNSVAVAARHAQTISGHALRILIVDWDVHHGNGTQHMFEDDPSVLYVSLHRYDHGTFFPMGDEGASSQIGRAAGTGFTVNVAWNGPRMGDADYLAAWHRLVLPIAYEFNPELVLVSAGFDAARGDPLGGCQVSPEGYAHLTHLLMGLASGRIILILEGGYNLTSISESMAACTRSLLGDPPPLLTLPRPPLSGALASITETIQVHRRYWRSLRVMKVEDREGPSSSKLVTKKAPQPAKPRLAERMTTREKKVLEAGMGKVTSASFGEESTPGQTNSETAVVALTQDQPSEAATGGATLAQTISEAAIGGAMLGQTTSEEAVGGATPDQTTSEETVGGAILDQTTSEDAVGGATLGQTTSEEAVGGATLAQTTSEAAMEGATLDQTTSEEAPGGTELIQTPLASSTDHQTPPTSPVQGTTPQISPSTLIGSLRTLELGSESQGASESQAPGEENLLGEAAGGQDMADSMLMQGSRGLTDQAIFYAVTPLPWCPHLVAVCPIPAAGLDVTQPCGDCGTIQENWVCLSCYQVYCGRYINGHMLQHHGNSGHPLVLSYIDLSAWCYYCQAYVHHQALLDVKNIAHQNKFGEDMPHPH

[4] = tested on: CT26; experiment: Antiproliferative activity against mouse CT26 cells measured after 72 hrs by CCK8 assay; type: functional
[5] = biological target: Histone deacetylase 1 (Homo sapiens, UniProt Q13547); experiment: Inhibition of HDAC1 (unknown origin) assessed as release of 7-amino-4-methylcoumarin incubated in room temperature for 15 min measured by Spectra max microtitre plate reader
[6] = biological target: T2, Adenosine receptor A3 (Homo sapiens, UniProt P0DMS8); experiment: Displacement of [3H]DPCPX from human adenosine A3 receptor membrane (unknown origin) measured after 60 mins by scintillation counting analysis; type: cell membranes
T2 sequence (P0DMS8 whole entry): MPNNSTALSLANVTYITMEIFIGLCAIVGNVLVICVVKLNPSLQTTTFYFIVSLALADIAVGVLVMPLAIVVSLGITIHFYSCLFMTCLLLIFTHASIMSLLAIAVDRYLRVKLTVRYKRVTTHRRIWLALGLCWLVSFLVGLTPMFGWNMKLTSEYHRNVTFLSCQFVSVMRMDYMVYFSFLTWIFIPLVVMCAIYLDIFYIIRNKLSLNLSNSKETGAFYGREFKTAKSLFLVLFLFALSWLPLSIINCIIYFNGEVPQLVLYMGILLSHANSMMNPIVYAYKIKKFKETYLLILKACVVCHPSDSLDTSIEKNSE

Adenosine receptor A2a, sequence (P29274 whole entry): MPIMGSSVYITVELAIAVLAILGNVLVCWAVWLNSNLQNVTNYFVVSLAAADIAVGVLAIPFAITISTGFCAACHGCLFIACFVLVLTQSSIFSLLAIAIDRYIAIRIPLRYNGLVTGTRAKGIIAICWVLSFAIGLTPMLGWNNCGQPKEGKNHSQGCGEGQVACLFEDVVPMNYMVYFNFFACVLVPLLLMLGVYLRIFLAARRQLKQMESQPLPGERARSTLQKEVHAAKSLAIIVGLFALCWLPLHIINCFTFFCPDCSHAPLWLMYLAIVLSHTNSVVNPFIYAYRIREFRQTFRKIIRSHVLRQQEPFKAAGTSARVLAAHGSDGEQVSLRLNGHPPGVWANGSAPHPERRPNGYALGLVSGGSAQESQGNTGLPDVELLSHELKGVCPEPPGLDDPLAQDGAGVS
Histone deacetylase 1, sequence (Q13547 whole entry): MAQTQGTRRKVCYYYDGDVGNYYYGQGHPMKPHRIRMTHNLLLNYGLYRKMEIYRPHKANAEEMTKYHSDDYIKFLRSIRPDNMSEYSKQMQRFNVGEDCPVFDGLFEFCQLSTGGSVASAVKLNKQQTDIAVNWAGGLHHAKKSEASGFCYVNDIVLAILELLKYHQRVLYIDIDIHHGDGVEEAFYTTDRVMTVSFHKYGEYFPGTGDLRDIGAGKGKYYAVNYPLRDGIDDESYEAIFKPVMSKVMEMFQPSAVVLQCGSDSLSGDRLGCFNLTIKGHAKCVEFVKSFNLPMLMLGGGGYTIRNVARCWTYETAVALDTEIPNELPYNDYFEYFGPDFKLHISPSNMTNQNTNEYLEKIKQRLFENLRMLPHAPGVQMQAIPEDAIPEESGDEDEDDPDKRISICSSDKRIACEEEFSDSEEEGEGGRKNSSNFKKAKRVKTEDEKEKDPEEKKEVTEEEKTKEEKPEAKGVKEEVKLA

SMILES	Ki [2]	IC50 [3]	GI50 ([4]; Mus musculus, CT26)	IC50 [5]	Ki [6]	GI50 [4]	GI50 ([1]; Mus musculus, MC-38)	GI50 [1]
Cc1ccc(-c2nc3c4cnn(CCc5ccc(C(=O)Nc6ccccc6N)cc5)c4nc(N)n3n2)o1	18.5 nM		> 100000 nM	126 nM			> 100000 nM	
Nc1nc2c(cnn2CCN2Cc3ccc(C(=O)NO)cc3C2)c2nc(-c3ccco3)nn12	60.4 nM			> 10000 nM				
Nc1ccccc1NC(=O)c1ccc(CCn2ccc3c2nc(N)n2nc(-c4ccco4)nc32)cc1	0.87 nM		> 100000 nM	90 nM			> 100000 nM	
Nc1cc(F)ccc1NC(=O)c1ccc(CCCn2ncc3c2nc(N)n2nc(-c4ccco4)nc32)cc1	10.1 nM			2680 nM				
Nc1nc2c(cnn2CCc2ccccc2)c2nc(-c3ccco3)nn12 [SCH-58261]			> 100000 nM		> 10000 nM		> 100000 nM	
O=C(CCCCCCC(=O)Nc1ccccc1)NO [VORINOSTAT]						2700 nM		2400 nM
Nc1nc(N2CCN(CCc3ccc(C(=O)NO)cc3)CC2)nc2nc(-c3ccco3)nn12	4.2 nM	19 nM	> 100000 nM	220 nM			> 100000 nM	
Nc1ccccc1NC(=O)c1ccc(Cn2ncc3c2nc(N)n2nc(-c4ccco4)nc32)cc1	86.9 nM	> 10000 nM		53 nM				
Nc1nc2c(cnn2CCN2CCc3ccc(C(=O)NO)cc3C2)c2nc(-c3ccco3)nn12	5.6 nM	80 nM		399 nM				
Nc1ccccc1NC(=O)c1ccc(OCCn2ncc3c2nc(N)n2nc(-c4ccco4)nc32)cc1	43.7 nM		8800 nM	279 nM			7100 nM	
Nc1ccccc1NC(=O)c1ccc(OCCNc2nc(N)n3nc(-c4ccco4)nc3n2)cc1	4.9 nM	> 10000 nM	32400 nM	68.5 nM			36900 nM	
Nc1ccccc1NC(=O)c1ccc(CCCn2ncc3c2nc(N)n2nc(-c4ccco4)nc32)cc1	3.3 nM		> 100000 nM	203 nM			> 100000 nM	
CN(CCOc1ccc(C(=O)NO)cc1)c1nc(N)n2nc(-c3ccco3)nc2n1	15.7 nM	18 nM	> 100000 nM	21.5 nM			> 100000 nM	
Nc1cc(F)ccc1NC(=O)c1ccc(CCn2ncc3c2nc(N)n2nc(-c4ccco4)nc32)cc1	2.8 nM		11200 nM	228 nM			10800 nM	
Nc1ccccc1NC(=O)c1ccc(CNc2nccc(-c3cccnc3)n2)cc1 [MOCETINOSTAT]			1800 nM				21000 nM	
Nc1nc2c(cnn2CCc2ccc(C(=O)NO)cc2)c2nc(-c3ccco3)nn12	4.3 nM	7.6 nM	100000 nM	138 nM			100000 nM	
Nc1nc2c(cnn2CCCCC(=O)NO)c2nc(-c3ccco3)nn12	82.8 nM	74 nM		486 nM				
Nc1nc2c(cnn2CCN2CCC(c3ccc(C(=O)NO)cc3)CC2)c2nc(-c3ccco3)nn12	3.7 nM	32 nM	11900 nM	84 nM			16900 nM	

Continued, in another order:

Ki [2]	IC50 [3]	GI50 ([4]; Mus musculus, CT26)	IC50 [5]	Ki [6]	GI50 [4]	SMILES	GI50 ([1]; Mus musculus, MC-38)	GI50 [1]
4.9 nM	5.9 nM	> 100000 nM	8 nM			Nc1nc2c(cnn2CCc2ccc(NC(=O)CCCCCCC(=O)NO)cc2)c2nc(-c3ccco3)nn12	> 100000 nM	
11.3 nM	5.9 nM	> 100000 nM	11.5 nM			Nc1nc(NCCc2ccc(NC(=O)CCCCCCC(=O)NO)cc2)nc2nc(-c3ccco3)nn12	> 100000 nM	
0.95 nM	8 nM	25900 nM	86.7 nM			Nc1nc(NCCc2ccc(OCCCCCC(=O)NO)cc2)nc2nc(-c3ccco3)nn12	15000 nM	
3.9 nM	> 10000 nM	59100 nM	137 nM			Nc1ccccc1NC(=O)c1ccc(CCNc2nc(N)n3nc(-c4ccco4)nc3n2)cc1	48200 nM	
84.8 nM	3 nM		21.5 nM			Nc1nc(NCc2ccc(C(=O)NO)cc2)nc2nc(-c3ccco3)nn12		
9.6 nM	> 10000 nM	44000 nM	173 nM			Nc1cc(F)ccc1NC(=O)c1ccc(CCNc2nc(N)n3nc(-c4ccco4)nc3n2)cc1	25900 nM	
6 nM	132 nM		108 nM			Nc1nc(NCCc2ccc(OCCCC(=O)NO)cc2)nc2nc(-c3ccco3)nn12		
2 nM	16 nM		81 nM			Nc1nc2c(cnn2CCc2ccc(OCCCCCC(=O)NO)cc2)c2nc(-c3ccco3)nn12		
37.8 nM	69 nM	42900 nM	10.2 nM			Nc1nc(NCCc2ccc(/C=C/C(=O)NO)cc2)nc2nc(-c3ccco3)nn12	40500 nM	
8.4 nM	4.9 nM	> 100000 nM	23.7 nM			Nc1nc(NCCCc2ccc(C(=O)NO)cc2)nc2nc(-c3ccco3)nn12	> 100000 nM	
19.9 nM	35 nM		162 nM			Nc1nc(NCc2ccc(OCCCCC(=O)NO)cc2)nc2nc(-c3ccco3)nn12		
5.8 nM	37 nM		102 nM			Nc1nc(NCCc2ccc(OCCCCC(=O)NO)cc2)nc2nc(-c3ccco3)nn12		
6.3 nM	14.8 nM	> 100000 nM	104 nM			Nc1nc(NCCc2ccc(C(=O)NO)cc2)nc2nc(-c3ccco3)nn12	> 100000 nM	
77.8 nM	15 nM	17800 nM	27 nM			Nc1nc2c(cnn2CCCCCC(=O)NO)c2nc(-c3ccco3)nn12	14000 nM	
10.2 nM	3.2 nM	> 100000 nM	7.4 nM			Nc1nc(NCCOc2ccc(C(=O)NO)cc2)nc2nc(-c3ccco3)nn12	> 100000 nM	
10.1 nM	6.6 nM	1400 nM	3.8 nM			Nc1nc2c(cnn2CCCCCCC(=O)NO)c2nc(-c3ccco3)nn12	1400 nM	
4.4 nM	17.4 nM	75100 nM	159 nM			CN(CCc1ccc(C(=O)NO)cc1)c1nc(N)n2nc(-c3ccco3)nc2n1	69200 nM	
2.4 nM	22 nM		175 nM			CCN(CCc1ccc(C(=O)NO)cc1)c1nc(N)n2nc(-c3ccco3)nc2n1		
27 nM	9 nM	17500 nM	5 nM			Nc1nc(NCc2ccc(/C=C/C(=O)NO)cc2)nc2nc(-c3ccco3)nn12	20700 nM	
3.9 nM	> 10000 nM	25200 nM	59.5 nM			Nc1ccccc1NC(=O)c1ccc(CCCNc2nc(N)n3nc(-c4ccco4)nc3n2)cc1	25400 nM	
	> 1000 nM		> 10000 nM			Nc1nc(NCCc2ccc(O)cc2)nc2nc(-c3ccco3)nn12 [ZM-241385]		
21.2 nM	10.6 nM	31600 nM	7.7 nM			Nc1nc(NCCCCCCC(=O)NO)nc2nc(-c3ccco3)nn12	35700 nM	
34.8 nM	> 10000 nM	16500 nM	65.7 nM			Nc1ccccc1NC(=O)c1ccc(CNc2nc(N)n3nc(-c4ccco4)nc3n2)cc1	14100 nM	
